Patent US6930115B2, “Antitumor effect potentiators” (Mitsubishi Pharma Corporation, priority 2000, dated 2005)

Legend:
[1] = system: mouse B16-F10 melanoma cultured cells; assay: Hematogenous pulmonary metastasis after transplantation of mouse B16-F10 melanoma cultured cells into tail vein; format: in vivo; conditions: for CI (Combination Index): Median Effect Analysis, CI below 1 = synergistic
Method: • (1) Preparation of mouse B16-F10 melanoma cultured cells (hereinafter simply B16-F10) B16-F10 cells (a permission to use was obtained from US M.D. Anderson Cancer Center, Dr. I. Fidler and provided for use from Japanese Foundation for cancer research·cancer chemotherapy center, Dr. […] For experiment, B16-F10 cells were suspended in MEM at 5×10^5 cells/mL and 0.2 mL thereof was transferred into the tail vein of 8-week-old male C57BL/6 mice (8 per group). […] Alzet, model 1002, flow rate […], for use for 14 days), and the osmotic pump was intraperitoneally transplanted into the mice one day before the transplantation of B16-F10 cells. • (3) As regards cisplatin, a preparation for injection (product name: Randa injection) was diluted with physiological saline and intraperitoneally administered once the day after transplantation of B16-F10 cells. As regards etoposide, a preparation for injection (product name: […] injection) was diluted with physiological saline and repeatedly administered intraperitoneally once a day for 5 days starting from one day after transplantation of B16-F10 cells. Paclitaxel was purchased from Sigma chemicals Co., suspended in 0.5% metolose solution and repeatedly administered intraperitoneally once every other day (3 times/week for 2 weeks) starting from one day after transplantation of B16-F10 cells. […] In addition, the values of combination index (CI) of the action in concomitant use analyzed by Median Effect Analysis (References and [2]) with regard to the combination group of the compound of the present invention and the anticancer agent are summarized in Table 3 and Table 6.

[2] = system: Mouse melanoma B16-F10 cells; assay: Measurement of cell growth activity (MTT), in vitro growth of B16-F10 cells; format: cell-based; conditions: for CI (Combination Index): median effect analysis; for average growth suppression rate ± standard error: MTT
Method: Mouse melanoma B16-F10 cells (the aforementioned) were cultured in MEM supplemented with 2 mM L-glutamine, 1 mM MEM non-essential amino acids, 1% MEM vitamins, 1 mM pyruvic acid and 5% FCS, and the cells were scraped off from the culture flask every 3-4 days with a cell scraper (No. 3010, manufactured by Coaster), diluted 10-fold and maintained by subculture. In the experiment examining the effect of the test substance on the cell growth, the B16-F10 cells maintained in vitro by subculture were recovered with a cell scraper, suspended in MEM supplemented with 10% FCS at 2×10^5 cells/mL and added to a 96 well microtest plate (Becton Dickinson) at 1×10^4 cells/50 μL/well. Furthermore, 50 μL of a test substance at a 2-fold concentration of the final concentration was added to the well, and cultured in a CO2 incubator (MCO-175, SANYO Electric Co., Ltd.) at 37° C., 5% CO2 95% air for 72 hr.
After culture, 10 mg/mL of MTT [(3-[4,5-Dimethylthiazol-2-yl]-2,5-diphenyl-tetrazolium bromide)] was added at 10 μL/well, which was followed by culture for 3 hr. Thereafter, 100 μL of 10% SDS (sodium dodecylsulfate)—0.01N HCl was added to dissolve the pigment and absorbance at 570 nm was measured with a multilabel counter (1420 ARVO SX, Pharmacia Biotech Corporation). According to the concentration of the test substance, each well was expressed by absorbance, and average value and standard error. Using the well, to which the medium alone was added, as a control, the growth inhibition rate was calculated according to the following formula. [formula] Analysis method: Based on the dose reaction curves of the inventive compound alone treatment group and cisplatin alone treatment group, the combination index (CI) of the action in concomitant use is calculated by median effect analysis (References and [2]). (Results)

For `C[C@@H](N)c1ccc(C(=O)Nc2ccncc2)cc1.Cl` [compound of the present invention, (R)-(+)-N-(4-pyridyl)-4-(1-aminoethyl)benzamide HCl], the “T/C±standard error (average number of pulmonary metastatic colonies of administration group/control group ×100)” value ([1]; Table 1, compound 1 mg/kg oral administration once a day for 14 days, alone) was 77.1 ± 10.0%, the “T/C±standard error (average number of pulmonary metastatic colonies of administration group/control group ×100)” value ([1]; Table 1, compound 1 mg/kg oral once a day for 14 days in combination with cisplatin 5 mg/kg intraperitoneally once) was 13.4 ± 1.4% and the “T/C±standard error (average number of pulmonary metastatic colonies of administration group/control group ×100)” value ([1]; Table 1, compound 1 mg/kg oral once a day for 14 days in combination with cisplatin 10 mg/kg intraperitoneally once, p < 0.01 vs. cisplatin (10 mg/kg) alone) was 19.5 ± 3.0%. The “T/C±standard error (average number of pulmonary metastatic colonies of administration group/control group ×100)” value ([1]; Table 1, compound 3 mg/kg oral administration once a day for 14 days, alone) was 65.2 ± 3.7%, the “T/C±standard error (average number of pulmonary metastatic colonies of administration group/control group ×100)” value ([1]; Table 1, compound 3 mg/kg oral once a day for 14 days in combination with cisplatin 5 mg/kg intraperitoneally once) was 14.4 ± 2.0% and the “T/C±standard error (average number of pulmonary metastatic colonies of administration group/control group ×100)” value ([1]; Table 1, compound 3 mg/kg oral once a day for 14 days in combination with cisplatin 10 mg/kg intraperitoneally once, p < 0.01 vs. cisplatin (10 mg/kg) alone) was 16.5 ± 1.4%. The “T/C±standard error (average number of pulmonary metastatic colonies of administration group/control group ×100)” value ([1]; Table 2, compound 0.3 mg/kg by intraperitoneal osmotic pump (14 days), alone) was 73.4 ± 10.1%, the “T/C±standard error (average number of pulmonary metastatic colonies of administration group/control group ×100)” value ([1]; Table 2, compound 0.3 mg/kg by osmotic pump in combination with cisplatin 10 mg/kg intraperitoneally once) was 12.1 ± 2.1% and the “T/C±standard error (average number of pulmonary metastatic colonies of administration group/control group ×100)” value ([1]; Table 2, compound 1 mg/kg by intraperitoneal osmotic pump (14 days), alone) was 69.9 ± 7.7%. The “T/C±standard error (average number of pulmonary metastatic colonies of administration group/control group ×100)” value ([1]; Table 2, compound 1 mg/kg by osmotic pump in combination with cisplatin 10 mg/kg intraperitoneally once) was 13.0 ± 1.8%, the “T/C±standard error (average number of pulmonary metastatic colonies of administration group/control group ×100)” value ([1]; Table 2, compound 3 mg/kg by intraperitoneal osmotic pump (14 days), alone) was 63.5 ± 7.7% and the “T/C±standard error (average number of pulmonary metastatic colonies of administration group/control group ×100)” value ([1]; Table 2, compound 3 mg/kg by osmotic pump in combination with cisplatin 10 mg/kg intraperitoneally once, P < 0.05 vs. cisplatin (10 mg/kg) alone) was 11.1 ± 1.4%. For the same compound, the “T/C±standard error (average number of pulmonary metastatic colonies of administration group/control group ×100)” value ([1]; Table 4, compound 1 mg/kg oral administration once a day for 14 days, alone) was 83.4 ± 10.8%, the “T/C±standard error (average number of pulmonary metastatic colonies of administration group/control group ×100)” value ([1]; Table 4, compound 1 mg/kg oral in combination with etoposide 5 mg/kg intraperitoneally once a day for 5 days, P < 0.05 vs. etoposide (5 mg/kg) alone) was 22.0 ± 4.8% and the “T/C±standard error (average number of pulmonary metastatic colonies of administration group/control group ×100)” value ([1]; Table 4, compound 3 mg/kg oral administration once a day for 14 days, alone) was 70.5 ± 4.0%. For the same compound, the “T/C±standard error (average number of pulmonary metastatic colonies of administration group/control group ×100)” value ([1]; Table 4, compound 3 mg/kg oral in combination with etoposide 5 mg/kg intraperitoneally once a day for 5 days, P < 0.01 vs. etoposide (5 mg/kg) alone) was 19.2 ± 2.8%, the “T/C±standard error (average number of pulmonary metastatic colonies of administration group/control group ×100)” value ([1]; Table 5, compound 1 mg/kg oral administration once a day for 14 days, alone) was 69.8 ± 9.0% and the “T/C±standard error (average number of pulmonary metastatic colonies of administration group/control group ×100)” value ([1]; Table 5, compound 1 mg/kg oral in combination with paclitaxel 5 mg/kg intraperitoneally once every other day, P < 0.05 vs. paclitaxel (5 mg/kg) alone) was 20.6 ± 2.6%. For the same compound, the “T/C±standard error (average number of pulmonary metastatic colonies of administration group/control group ×100)” value ([1]; Table 5, compound 3 mg/kg oral administration once a day for 14 days, alone) was 59.0 ± 3.3%, the “T/C±standard error (average number of pulmonary metastatic colonies of administration group/control group ×100)” value ([1]; Table 5, compound 3 mg/kg oral in combination with paclitaxel 5 mg/kg intraperitoneally once every other day, P < 0.01 vs. paclitaxel (5 mg/kg) alone) was 16.3 ± 3.0% and the “number of pulmonary metastatic colonies of B16-F10 cells” value (“number … of B16-F10 cells” for short) ([1]; combination group with cisplatin as compared to the cisplatin alone administration group (p<0.01 or p<0.05, Dunnett's test)) was “significantly decreased”. For the same compound, the “number … of B16-F10 cells” value ([1]; combination group with etoposide as compared to the etoposide alone administration group (p<0.01 or p<0.05 Dunnett's test)) was “significantly decreased”, the “number … of B16-F10 cells” value ([1]; combination group with paclitaxel as compared to the paclitaxel alone administration group (p<0.01 or p<0.05 Dunnett's test)) was “significantly decreased” and the “CI (Combination Index)” value ([1]; compound 0.3 mg/kg osmotic pump + cisplatin 10 mg/kg) was 0.19. For the same compound, the “CI (Combination Index)” value ([1]; compound 1 mg/kg oral + Etoposide (5 mg/kg)) was 0.42, the “CI (Combination Index)” value ([1]; compound 1 mg/kg oral + Paclitaxel (5 mg/kg)) was 0.63 and the “CI (Combination Index)” value ([1]; compound 1 mg/kg oral administration + cisplatin 10 mg/kg) was 0.12. For the same compound, the “CI (Combination Index)” value ([1]; compound 1 mg/kg osmotic pump + cisplatin 10 mg/kg) was 0.21, the “CI (Combination Index)” value ([1]; compound 3 mg/kg oral + Etoposide (5 mg/kg)) was 0.34 and the “CI (Combination Index)” value ([1]; compound 3 mg/kg oral + Paclitaxel (5 mg/kg)) was 0.34. For the same compound, the “CI (Combination Index)” value ([1]; compound 3 mg/kg oral administration + cisplatin 10 mg/kg) was 0.09, the “CI (Combination Index)” value ([1]; compound 3 mg/kg osmotic pump + cisplatin 10 mg/kg) was 0.17 and the “CI value of the action in concomitant use” value ([1]; compound and cisplatin used in combination, every dose (Table 3)) was “lower than 1”. The “combination index of the action in concomitant use” value ([1]; compound and etoposide used in combination (Table 6)) was “lower than 1”, the “combination index of the action in concomitant use” value ([1]; compound and paclitaxel used in combination (Table 6)) was “lower than 1” and the “CI (Combination Index)” value ([2]; compound 0.3 μM + cisplatin 10 μM) was 0.4293. For the same compound, the “CI (Combination Index)” value ([2]; compound 1 μM + cisplatin 10 μM) was 0.4656, the “CI (Combination Index)” value ([2]; compound 3 μM + cisplatin 10 μM) was 0.4478 and the “CI (Combination Index)” value ([2]; compound 10 μM + cisplatin 10 μM) was 0.4403. For the same compound, the “CI (Combination Index)” value ([2]; compound 30 μM + cisplatin 10 μM) was 0.5071, the “CI (Combination Index)” value ([2]; compound 100 μM + cisplatin 10 μM) was 0.3558 and the “average growth suppression rate ± standard error” value ([2]; compound 0.1 (no unit in Table 7; μM in Table 8) alone, 72 hr culture) was 4.389 ± 3.094%. For the same compound, the “average growth suppression rate ± standard error” value ([2]; compound 0.3 (no unit in Table 7; μM in Table 8) alone, 72 hr culture) was 5.196 ± 0.214%, the “average growth suppression rate ± standard error” value ([2]; compound 0.3 in combination with cisplatin 10 μM, 72 hr, NS (p = 0.1293) vs. cisplatin (10 μM) alone) was 17.200 ± 11.245% and the “average growth suppression rate ± standard error” value ([2]; compound 1 (no unit in Table 7; μM in Table 8) alone, 72 hr culture) was 7.877 ± 0.727%. The “average growth suppression rate ± standard error” value ([2]; compound 1 in combination with cisplatin 10 μM, 72 hr, NS (P = 0.1236) vs. cisplatin (10 μM) alone) was 17.319 ± 4.397%, the “average growth suppression rate ± standard error” value ([2]; compound 3 (no unit in Table 7; μM in Table 8) alone, 72 hr culture) was 10.012 ± 1.459% and the “average growth suppression rate ± standard error” value ([2]; compound 3 in combination with cisplatin 10 μM, 72 hr, p = 0.0028 vs. cisplatin (10 μM) alone) was 26.406 ± 8.364%. The “average growth suppression rate ± standard error” value ([2]; compound 10 (no unit in Table 7; μM in Table 8) alone, 72 hr culture) was 10.700 ± 0.365%, the “average growth suppression rate ± standard error” value ([2]; compound 10 in combination with cisplatin 10 μM, 72 hr, p = 0.0000 vs. cisplatin (10 μM) alone) was 43.796 ± 5.446% and the “average growth suppression rate ± standard error” value ([2]; compound 30 (no unit in Table 7; μM in Table 8) alone, 72 hr culture) was 22.657 ± 4.784%. For the same compound, the “average growth suppression rate ± standard error” value ([2]; compound 30 in combination with cisplatin 10 μM, 72 hr, p = 0.0000 vs. cisplatin (10 μM) alone) was 90.320 ± 2.220%, the “average growth suppression rate ± standard error” value ([2]; compound 100 (no unit in Table 7; μM in Table 8) alone, 72 hr culture) was 57.960 ± 8.575% and the “average growth suppression rate ± standard error” value ([2]; compound 100 in combination with cisplatin 10 μM, 72 hr, p = 0.0000 vs. cisplatin (10 μM) alone) was 96.180 ± 0.164%.
